Calls of active or inactive are those of the source. How the calls were made is not given here.
System: CCRIS mutagenicity, Ames/micronucleus/aberration tests
Test: CCRIS mutagenicity studies
Details: Test System: AMES SALMONELLA TYPHIMURIUM, Method: PREINCUBATION

Measured: mutagenic call

C=CC(C)C#N (stereo not drawn)
inactive: Strain/Indicator: TA97, Metabolic Activation: HAMSTER, LIVER, S-9, AROCLOR 1254 (5 OR 30%) inactive; negative | Strain/Indicator: TA97, Metabolic Activation: HAMSTER, LIVER, S-9, AROCLOR 1254 (10%) inactive; negative | Strain/Indicator: TA97, Metabolic Activation: NONE inactive; negative | Strain/Indicator: TA97, Metabolic Activation: RAT, LIVER, S-9, AROCLOR 1254 (10%) inactive; negative | Strain/Indicator: TA97, Metabolic Activation: RAT, LIVER, S-9, AROCLOR 1254 (30%) inactive; negative | Strain/Indicator: TA98, Metabolic Activation: HAMSTER, LIVER, S-9, AROCLOR 1254 (10%) inactive; negative | Strain/Indicator: TA98, Metabolic Activation: HAMSTER, LIVER, S-9, AROCLOR 1254 (30%) inactive; negative | Strain/Indicator: TA98, Metabolic Activation: NONE inactive; negative | Strain/Indicator: TA98, Metabolic Activation: RAT, LIVER, S-9, AROCLOR 1254 (10%) inactive; negative | Strain/Indicator: TA98, Metabolic Activation: RAT, LIVER, S-9, AROCLOR 1254 (30%) inactive; negative | Strain/Indicator: TA100, Metabolic Activation: HAMSTER, LIVER, S-9, AROCLOR 1254 (10%) inactive; negative | Strain/Indicator: TA100, Metabolic Activation: HAMSTER, LIVER, S-9, AROCLOR 1254 (30%) inactive; negative | Strain/Indicator: TA100, Metabolic Activation: NONE inactive; negative | Strain/Indicator: TA100, Metabolic Activation: RAT, LIVER, S-9, AROCLOR 1254 (10%) inactive; negative | Strain/Indicator: TA100, Metabolic Activation: RAT, LIVER, S-9, AROCLOR 1254 (30%) inactive; negative | Strain/Indicator: TA1535, Metabolic Activation: HAMSTER, LIVER, S-9, AROCLOR 1254 (10%) inactive; negative | Strain/Indicator: TA1535, Metabolic Activation: HAMSTER, LIVER, S-9, AROCLOR 1254 (30%) inactive; negative | Strain/Indicator: TA1535, Metabolic Activation: NONE inactive; negative | Strain/Indicator: TA1535, Metabolic Activation: RAT, LIVER, S-9, AROCLOR 1254 (10%) inactive; negative | Strain/Indicator: TA1535, Metabolic Activation: RAT, LIVER, S-9, AROCLOR 1254 (30%) inactive; negative | Strain/Indicator: TA1537, Metabolic Activation: HAMSTER, LIVER, S-9, AROCLOR 1254 (30%) inactive; negative | Strain/Indicator: TA1537, Metabolic Activation: NONE inactive; negative | Strain/Indicator: TA1537, Metabolic Activation: RAT, LIVER, S-9, AROCLOR 1254 (30%) inactive; negative
